pIC50: −log10 of the molar value.

In general, inhibition refers to how much of the control response was suppressed. A lower inhibition goes with a response near the control.

The target of one experiment is T1, human GPR84 receptor (Homo sapiens, UniProt Q9NQS5).
T1 construct: host or cells: HEK293, transient transfection
Put plainly: Gαi biosensor BRET assay in HEK293 cells (antagonism of ZQ-16). The format is cell-based. The following applies: for inhibition at 10 µM: HEK293, single concentration 10 μM (designated F); for pIC50: HEK293 cells, antagonism of 200 nmol/L ZQ-16; for inhibition at 2 µM: HEK293, single concentration 2 μM (designated A); for inhibition at 25 µM: HEK293, single concentration 25 μM (designated I). The method, boiled down:
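HEK293 cells transiently expressing human GPR84, Gαi2-Rluc8, GFP10-Gγ2 and Gβ1, in Tyrode's buffer pH 7.5. Compounds preincubated 5 min at 37° C, then 200 nmol/L ZQ-16 for 5 min at room temperature; coelenterazine 400A 5 μmol/L. BRET2 acceptor/donor ratio, background- and vehicle-corrected net BRET.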
(In general: Bioluminescence resonance energy transfer reports proximity on the nanometre scale.)

A further experiment deals with neutrophils. In words: Neutrophil migration assay (embelin as chemotactic agent, ATPlite readout). The settings on record: for pIC50: Neutrophil, human neutrophils, embelin as chemotactic agent, read-out: Human Neutrophil migration inhibition IC50; for Human Neutrophil migration inhibition - fold potency to Control Compound: normalized to GPR84 antagonist Control Compound (average IC50 131 nM). The experiment is classed as cell-based. The procedure:
Neutrophil migration assay. After isolation, neutrophils were resuspended in chemotaxis buffer (DMEM supplemented with 10 mM HEPES) at a concentration of 8.9×10^6 cells/ml. In a 96-well plate, 20 μl of compound solution in chemotaxis buffer is added to 180 μl of cell suspension. After incubation at 37° C. for 30 minutes, 75 μl of cell suspension is transferred in the upper chamber of a 5 μm pore size Corning HTS transwell. 235 μl of chemotaxis buffer containing the chemotactic agent (embelin) is added to the lower chamber of the transwell. After a 60-minute incubation time at 37° C. in 5%0 C02, the upper chamber of the transwell is removed and the plate is centrifuged at 1500 rpm for 6 minutes. Supermatant is removed and cells resuspended in 100 ul of PBS. ATP content was assessed using ATPlite Luminescence Assay System® according to manufacturer instructions (Perkin Elmer, Buckinghamshire, UK). Briefly, 50 μl of ATPlite buffer and 50 μl of lysis solution is added to the lower chamber of the Transwells. After incubation at room temperature, in the dark with constant agitation for 5 minutes, 150 μl of cell lysate is transferred in a 96 wells white plate and incubated for 10 minutes in the dark. Luminescence is read on a TECAN plate reader, Infinite M1000 (Tecan, Morrisville, NC).
The compound numbers correspond to the compound numbers in Table 1. […] Normalization of the results takes the donor's variation into account.
In general terms: In ATP-based viability assays light output follows the ATP content of the culture.

T1 sequence (Q9NQS5 whole entry): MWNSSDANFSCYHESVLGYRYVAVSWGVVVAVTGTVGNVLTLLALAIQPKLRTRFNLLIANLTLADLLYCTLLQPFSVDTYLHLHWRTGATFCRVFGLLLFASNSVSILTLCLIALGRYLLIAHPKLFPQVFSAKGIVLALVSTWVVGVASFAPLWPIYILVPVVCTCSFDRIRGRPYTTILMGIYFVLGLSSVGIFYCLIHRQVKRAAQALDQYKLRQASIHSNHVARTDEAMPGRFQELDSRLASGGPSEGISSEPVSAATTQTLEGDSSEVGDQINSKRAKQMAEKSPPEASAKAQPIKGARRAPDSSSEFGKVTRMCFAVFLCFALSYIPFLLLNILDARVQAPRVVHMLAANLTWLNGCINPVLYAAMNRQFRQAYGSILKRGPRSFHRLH

With `Cc1cc(C#CC2CC2)cnc1-c1cn(C[C@H]2CCCCO2)nn1` [Compound I-245], on human GPR84 receptor, the inhibition at 10 µM is greater than 75% and the pIC50 was 5.52 to 6.00. In addition, in the experiment with neutrophils, the pIC50 is 6.00 to 6.52 and the “Human Neutrophil migration inhibition - fold potency to Control Compound” value was “C (IC50≤0.5-fold relative to Control Compound)”.

`Cc1cc(C#CC(C)(C)O)ccc1-c1cn(CC2CCCCO2)nn1` (stereo not drawn) [Compound I-79] came in with an inhibition at 15 µM on human GPR84 receptor (HEK293, single concentration 15 μM (designated H)) greater than 75%. Moreover, the pIC50 against human GPR84 receptor was less than 5.52. Besides, in the experiment on neutrophils, the pIC50 was 6.00 to 6.52 and the “Human Neutrophil migration inhibition - fold potency to Control Compound” value is recorded as “C (IC50≤0.5-fold relative to Control Compound)”.

Turning to `CN(C)c1cc(N2CC(C)(C)C2)ccc1-c1cn(CC2OCC(C)(C)CO2)nn1` [Compound I-585], at human GPR84 receptor, the inhibition at 10 µM was greater than 75% and the pIC50 is no less than 6.52. Also, in the experiment with neutrophils, the pIC50 was no less than 6.52 and the “Human Neutrophil migration inhibition - fold potency to Control Compound” value was “A (IC50 of >1.0-fold relative to Control Compound)”.

Consider `Cc1cc(C#CCN2CCN(c3ccccc3)CC2)ccc1-c1cn(CC2CCCCO2)nn1` (stereo not drawn) [Compound I-120], for which, on human GPR84 receptor, the pIC50 was no less than 6.52. In the experiment on neutrophils, the pIC50 is no less than 6.52 and the “Human Neutrophil migration inhibition - fold potency to Control Compound” value is “B (IC50 of >0.5-≤1.0-fold relative to Control Compound)”.

On human GPR84 receptor, `Cc1ccc(C#CC2CC2)cc1Cc1nnn(CC2CCCCO2)n1` (stereo not drawn) [Compound I-418] gave an inhibition at 2 µM greater than 75% and a pIC50 of 6.00 to 6.52. Further, in the experiment on neutrophils, the pIC50 was 5.52 to 6.00 and the “Human Neutrophil migration inhibition - fold potency to Control Compound” value is “C (IC50≤0.5-fold relative to Control Compound)”.

On human GPR84 receptor, `Cc1cc(C#CCN2CC(C)(C)C2)cnc1-c1cn(CC2OCC(C)(C)CO2)nn1` [Compound I-596] gave an inhibition at 10 µM greater than 75% and a pIC50 of 6.00 to 6.52. Moreover, in the experiment on neutrophils, the pIC50 is no less than 6.52 and the “Human Neutrophil migration inhibition - fold potency to Control Compound” value is “A (IC50 of >1.0-fold relative to Control Compound)”.

Turning to `Cc1cc(N2CCN(Cc3ccccn3)CC2)ccc1-c1cn(CC2OCC3(CC3)CO2)nn1` [Compound I-637], at human GPR84 receptor, the inhibition at 2 µM is greater than 75% and the pIC50 is 6.00 to 6.52. Moreover, in the experiment on neutrophils, the pIC50 is no less than 6.52 and the “Human Neutrophil migration inhibition - fold potency to Control Compound” value is recorded as “A (IC50 of >1.0-fold relative to Control Compound)”.

Regarding `Cc1cc(C#CCN2CC(C)(C)C2)ccc1-c1cn(CC2OCC(C)(C)CO2)nn1` [Compound I-634], on human GPR84 receptor, the inhibition at 10 µM is greater than 75% and the pIC50 was no less than 6.52. Further, in the experiment on neutrophils, the pIC50 was no less than 6.52 and the “Human Neutrophil migration inhibition - fold potency to Control Compound” value is “A (IC50 of >1.0-fold relative to Control Compound)”.

At human GPR84 receptor (HEK293, single concentration 6.25 μM (designated E)), `Cc1cc(C#CC2CC2)ccc1-c1cn(CC2CCCCO2)nn1` (stereo not drawn) [Compound I-34] registered an inhibition at 6.25 µM of 50 to 75%. Also, the results for the pIC50 at human GPR84 receptor and in the experiment on neutrophils were less than 5.52 and 5.52 to 6.00, respectively. Further, the “Human Neutrophil migration inhibition - fold potency to Control Compound” value in the experiment on neutrophils is on record as “C (IC50≤0.5-fold relative to Control Compound)”.

At human GPR84 receptor, `CN(C)c1cc(C#CCNc2ccccc2)ccc1-c1cn(CC2CC(C)(C)CO2)nn1` (stereo not drawn) [Compound I-460] gave an inhibition at 10 µM greater than 75% and a pIC50 of 6.00 to 6.52. In the experiment on neutrophils, the pIC50 was no less than 6.52 and the “Human Neutrophil migration inhibition - fold potency to Control Compound” value is “A (IC50 of >1.0-fold relative to Control Compound)”.

On human GPR84 receptor, `Cc1cc(C#CC2CC2)ccc1-c1cn(CC2CCC(C)(C)CO2)nn1` (stereo not drawn) [Compound I-455] had an inhibition at 10 µM greater than 75% and a pIC50 of 5.52 to 6.00. In the experiment on neutrophils, the pIC50 was no less than 6.52 and the “Human Neutrophil migration inhibition - fold potency to Control Compound” value is reported as “B (IC50 of >0.5-≤1.0-fold relative to Control Compound)”.

`CN(C)c1cc(C#CC2CC2)ccc1-c1cn(CC2CCCCO2)nn1` (stereo not drawn) [Compound I-87] gave a pIC50 against human GPR84 receptor of 5.52 to 6.00. Further, in the experiment on neutrophils, the pIC50 is 5.52 to 6.00 and the “Human Neutrophil migration inhibition - fold potency to Control Compound” value is given as “C (IC50≤0.5-fold relative to Control Compound)”.

Take `CC(C)Oc1cc(C#CC2CC2)cnc1-c1cn(CC2OCC(C)(C)CO2)nn1` [Compound I-651]: at human GPR84 receptor, the inhibition at 2 µM was greater than 75% and the pIC50 was no less than 6.52. In the experiment with neutrophils, the pIC50 was no less than 6.52 and the “Human Neutrophil migration inhibition - fold potency to Control Compound” value was “A (IC50 of >1.0-fold relative to Control Compound)”.

For `CCc1cc(C#CC2CC2)ccc1-c1cn(CC2CCCCO2)nn1` (stereo not drawn) [Compound I-77], at human GPR84 receptor (HEK293, single concentration 5 μM (designated D)), the inhibition at 5 µM is greater than 75%. For the same molecule, at human GPR84 receptor, the pIC50 was 6.00 to 6.52. Besides, in the experiment with neutrophils, the pIC50 was no less than 6.52 and the “Human Neutrophil migration inhibition - fold potency to Control Compound” value is given as “A (IC50 of >1.0-fold relative to Control Compound)”.

Consider `CO[C@H](c1cn(C[C@H]2CCCCO2)nn1)c1cc(C#CC2CC2)ccc1C` [Compound I-511], for which, on human GPR84 receptor, the inhibition at 2 µM was greater than 75% and the pIC50 is no less than 6.52. Moreover, in the experiment on neutrophils, the pIC50 was no less than 6.52 and the “Human Neutrophil migration inhibition - fold potency to Control Compound” value was “A (IC50 of >1.0-fold relative to Control Compound)”.

At human GPR84 receptor, `Cc1cc(C#CC2(O)CCCCC2)ccc1-c1cn(CC2CCCCO2)nn1` (stereo not drawn) [Compound I-94] had an inhibition at 10 µM greater than 75% and a pIC50 of 5.52 to 6.00. Also, in the experiment with neutrophils, the pIC50 is 5.52 to 6.00 and the “Human Neutrophil migration inhibition - fold potency to Control Compound” value is “C (IC50≤0.5-fold relative to Control Compound)”.

Regarding `Cc1ccc(C#CC2CC2)cc1-c1cn(CC2CCCCO2)nn1` (stereo not drawn) [Compound I-65], at human GPR84 receptor, the inhibition at 25 µM was greater than 75% and the pIC50 is 5.52 to 6.00. Further, in the experiment with neutrophils, the pIC50 was 5.52 to 6.00 and the “Human Neutrophil migration inhibition - fold potency to Control Compound” value was “C (IC50≤0.5-fold relative to Control Compound)”.

As for `CO[C@@H](c1cn(C[C@H]2CCCCO2)nn1)c1cc(C#CC2CC2)ccc1C` [Compound I-510], on human GPR84 receptor, the inhibition at 2 µM lay within 50 to 75% and the pIC50 is 6.00 to 6.52. Besides, in the experiment on neutrophils, the pIC50 was no less than 6.52 and the “Human Neutrophil migration inhibition - fold potency to Control Compound” value is “B (IC50 of >0.5-≤1.0-fold relative to Control Compound)”.

On human GPR84 receptor, `CCc1cc(N2CCN(Cc3ccccn3)CC2)cnc1-c1cn(C[C@H]2CCCCO2)nn1` [Compound I-459] showed an inhibition at 10 µM greater than 75% and a pIC50 of 5.52 to 6.00. Besides, in the experiment on neutrophils, the pIC50 is no less than 6.52 and the “Human Neutrophil migration inhibition - fold potency to Control Compound” value is on record as “C (IC50≤0.5-fold relative to Control Compound)”.

At human GPR84 receptor, `Cc1cc(N2CC(C)(N(C)Cc3ccccc3)C2)ccc1-c1cn(CC2CCCCO2)nn1` (stereo not drawn) [Compound I-553] had an inhibition at 10 µM of 25 to 50% and a pIC50 of 6.00 to 6.52. In the experiment on neutrophils, the pIC50 is no less than 6.52 and the “Human Neutrophil migration inhibition - fold potency to Control Compound” value is “B (IC50 of >0.5-≤1.0-fold relative to Control Compound)”.

At human GPR84 receptor, `Cc1ccc(C#CC2CC2)cc1-c1nnn(CC2CCCCO2)n1` (stereo not drawn) [Compound I-7] showed an inhibition at 25 µM greater than 75% and a pIC50 of less than 5.52. Moreover, in the experiment on neutrophils, the pIC50 was less than 5.52 and the “Human Neutrophil migration inhibition - fold potency to Control Compound” value is “C (IC50≤0.5-fold relative to Control Compound)”.

On to `Cc1cc(N2CC(C)(N(C)Cc3ccccn3)C2)ccc1-c1cn(CC2CCCCO2)nn1` (stereo not drawn) [Compound I-451], for which, on human GPR84 receptor, the inhibition at 10 µM is greater than 75% and the pIC50 is 6.00 to 6.52. For the same molecule, in the experiment on neutrophils, the pIC50 was no less than 6.52 and the “Human Neutrophil migration inhibition - fold potency to Control Compound” value is “A (IC50 of >1.0-fold relative to Control Compound)”.

Consider `Cc1cc(C#CCNc2ccccc2)ccc1-c1cn(C[C@H]2CCCCO2)nn1` [Compound I-166], for which, at human GPR84 receptor, the inhibition at 10 µM was greater than 75% and the pIC50 was 6.00 to 6.52. Further, in the experiment with neutrophils, the pIC50 is no less than 6.52 and the “Human Neutrophil migration inhibition - fold potency to Control Compound” value is “A (IC50 of >1.0-fold relative to Control Compound)”.
